How the values were obtained:
[1] = amide bond; 18-membered ring; HONB/DCC (preactivation); HCl/dioxane; TEA; DMF; 9.5 mM; 3 steps
[2] = from CC(C)C[C@H](NC(=O)[C@@H](CC(C)C)NC(=O)[C@H](CC(=O)OCc1ccccc1)NC(=O)[C@H](CCCNC(=O)c1ccccc1)NC(=O)OC(C)(C)C)C(=O)N[C@H](Cc1c[nH]c2ccccc12)C(=O)N[C@H](CC(=O)OCc1ccccc1)C(=O)O; amide bond; DCC/HONB (active ester), TEA; DMF; 5.03 mM; 16.0 h; 4 steps
[3] = amide bond; 18-membered ring; HONB/DCC preactivation; HCl; DIEA; DMF; 4.75 mM; 3 steps

cyclo[-D-Asp(OBzl)-Hyp(Bzl)-Asp(OBzl)-D-Leu-Leu-D-Trp-]
ring closure, isolated yield [1]: 82.6%

CC(C)C[C@@H]1NC(=O)[C@@H](CC(C)C)NC(=O)[C@H](CC(=O)O)NC(=O)[C@H](CCCNC(=O)c2ccccc2)NC(=O)[C@@H](CC(=O)O)NC(=O)[C@@H](Cc2c[nH]c3ccccc23)NC1=O [cyclo[-D-Asp-Orn(COPh)-Asp-D-Leu-Leu-D-Trp-]]
ring closure, yield of all isomers [2]: 48.1%

cyclo[-D-Asp(OBzl)-Asn(NHCH2CH2Ind)-Asp(OBzl)-D-Thg(2)-Leu-D-Trp-]
ring closure, crude yield [3]: 90.4%

From patent EP0552417B1, “Cyclic peptides and use thereof” (priority 1991, dated 1993)
